Experimental data taken from paper PMC4508061, “Selectivity Profiling and Biological Activity of Novel β-Carbolines as Potent and Selective DYRK1 Kinase Inhibitors” (PLoS ONE, 2015).

What was measured:
[1] = target: BLK (Homo sapiens, UniProt P51451); assay: ProQinase radiometric kinase panel; details: mean of 2 exp.
[2] = target: TAOK2 (Homo sapiens, UniProt Q9UL54); assay: ProQinase radiometric kinase panel; details: mean of 2 exp.
[3] = target: EPHA4 (Homo sapiens, UniProt P54764); assay: ProQinase radiometric kinase panel; details: mean of 2 exp.
[4] = target: p38-beta (Homo sapiens, UniProt Q15759); assay: ProQinase radiometric kinase panel; details: mean of 2 exp.
[5] = target: MAP3K7 (Homo sapiens, UniProt O43318); assay: ProQinase radiometric kinase panel; details: mean of 2 exp.
[6] = target: LIMK2 (Homo sapiens, UniProt P53671); assay: ProQinase radiometric kinase panel; details: mean of 2 exp.
[7] = target: MYLK2 (Homo sapiens, UniProt Q9H1R3); assay: ProQinase radiometric kinase panel; details: mean of 2 exp.
[8] = target: AMPK-alph1 (Homo sapiens, UniProt Q13131); assay: ProQinase radiometric kinase panel; details: mean of 2 exp.
[9] = target: JNK1 (Homo sapiens, UniProt P45983); assay: ProQinase radiometric kinase panel; details: mean of 2 exp.
[10] = target: NEK11 (Homo sapiens, UniProt Q8NG66); assay: ProQinase radiometric kinase panel; details: mean of 2 exp.
[11] = target: PAK6 (Homo sapiens, UniProt Q9NQU5); assay: ProQinase radiometric kinase panel; details: mean of 2 exp.
[12] = target: IGF1-R (Homo sapiens, UniProt P08069); assay: ProQinase radiometric kinase panel; details: mean of 2 exp.
Chain of IGF1-R (P08069 31-1367): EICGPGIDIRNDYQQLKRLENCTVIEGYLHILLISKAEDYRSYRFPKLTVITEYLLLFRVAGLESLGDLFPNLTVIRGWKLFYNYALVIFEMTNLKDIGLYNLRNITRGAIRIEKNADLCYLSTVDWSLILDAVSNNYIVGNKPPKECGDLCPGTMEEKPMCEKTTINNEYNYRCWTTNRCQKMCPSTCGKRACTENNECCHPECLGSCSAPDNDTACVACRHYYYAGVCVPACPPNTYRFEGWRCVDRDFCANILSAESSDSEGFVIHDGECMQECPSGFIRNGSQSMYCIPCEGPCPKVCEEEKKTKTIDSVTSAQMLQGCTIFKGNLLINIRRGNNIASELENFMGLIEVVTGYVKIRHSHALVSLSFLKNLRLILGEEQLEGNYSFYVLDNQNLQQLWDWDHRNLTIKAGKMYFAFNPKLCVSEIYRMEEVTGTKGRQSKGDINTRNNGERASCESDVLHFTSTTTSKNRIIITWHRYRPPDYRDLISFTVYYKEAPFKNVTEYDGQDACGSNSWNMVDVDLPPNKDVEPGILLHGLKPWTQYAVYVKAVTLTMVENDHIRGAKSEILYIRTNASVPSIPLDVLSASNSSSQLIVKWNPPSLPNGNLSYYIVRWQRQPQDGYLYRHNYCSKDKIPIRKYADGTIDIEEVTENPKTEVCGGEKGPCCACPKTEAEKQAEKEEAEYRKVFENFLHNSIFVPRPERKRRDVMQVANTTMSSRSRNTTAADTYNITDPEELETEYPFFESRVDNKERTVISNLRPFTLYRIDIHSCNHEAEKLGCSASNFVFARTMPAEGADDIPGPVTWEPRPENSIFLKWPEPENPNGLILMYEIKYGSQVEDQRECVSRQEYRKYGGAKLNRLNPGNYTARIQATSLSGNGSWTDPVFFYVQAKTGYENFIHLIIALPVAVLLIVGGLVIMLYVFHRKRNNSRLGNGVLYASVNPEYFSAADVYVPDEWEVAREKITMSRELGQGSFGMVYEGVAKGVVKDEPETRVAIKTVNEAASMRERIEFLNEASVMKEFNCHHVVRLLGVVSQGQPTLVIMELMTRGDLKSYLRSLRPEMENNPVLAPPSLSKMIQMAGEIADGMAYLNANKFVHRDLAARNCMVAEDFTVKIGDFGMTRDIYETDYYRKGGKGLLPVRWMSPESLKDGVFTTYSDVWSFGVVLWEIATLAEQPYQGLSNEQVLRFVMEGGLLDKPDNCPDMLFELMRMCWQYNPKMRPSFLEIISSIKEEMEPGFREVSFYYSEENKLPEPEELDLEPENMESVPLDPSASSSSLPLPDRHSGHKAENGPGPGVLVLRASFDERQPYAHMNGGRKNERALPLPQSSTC

[13] = target: NEK9 (Homo sapiens, UniProt Q8TD19); assay: ProQinase radiometric kinase panel; details: mean of 2 exp.
[14] = target: SNF1LK2 (Homo sapiens, UniProt Q9H0K1); assay: ProQinase radiometric kinase panel; details: mean of 2 exp.
[15] = target: EIF2AK3 (Homo sapiens, UniProt Q9NZJ5); assay: ProQinase radiometric kinase panel; details: mean of 2 exp.
[16] = Cell viability XTT assay; assay type: cell-based; details: rat, PC12 cells, read-out: Viability of treated cells relative to untreated control
[17] = tested on: PC12 cells; assay: Cell viability XTT assay; assay type: cell-based; details: PC12, up to 10 μM, 3 days
[18] = target: PKC-mu (Homo sapiens, UniProt Q15139); assay: ProQinase radiometric kinase panel; details: mean of 2 exp.
Chain of PKC-mu (Q15139 whole entry): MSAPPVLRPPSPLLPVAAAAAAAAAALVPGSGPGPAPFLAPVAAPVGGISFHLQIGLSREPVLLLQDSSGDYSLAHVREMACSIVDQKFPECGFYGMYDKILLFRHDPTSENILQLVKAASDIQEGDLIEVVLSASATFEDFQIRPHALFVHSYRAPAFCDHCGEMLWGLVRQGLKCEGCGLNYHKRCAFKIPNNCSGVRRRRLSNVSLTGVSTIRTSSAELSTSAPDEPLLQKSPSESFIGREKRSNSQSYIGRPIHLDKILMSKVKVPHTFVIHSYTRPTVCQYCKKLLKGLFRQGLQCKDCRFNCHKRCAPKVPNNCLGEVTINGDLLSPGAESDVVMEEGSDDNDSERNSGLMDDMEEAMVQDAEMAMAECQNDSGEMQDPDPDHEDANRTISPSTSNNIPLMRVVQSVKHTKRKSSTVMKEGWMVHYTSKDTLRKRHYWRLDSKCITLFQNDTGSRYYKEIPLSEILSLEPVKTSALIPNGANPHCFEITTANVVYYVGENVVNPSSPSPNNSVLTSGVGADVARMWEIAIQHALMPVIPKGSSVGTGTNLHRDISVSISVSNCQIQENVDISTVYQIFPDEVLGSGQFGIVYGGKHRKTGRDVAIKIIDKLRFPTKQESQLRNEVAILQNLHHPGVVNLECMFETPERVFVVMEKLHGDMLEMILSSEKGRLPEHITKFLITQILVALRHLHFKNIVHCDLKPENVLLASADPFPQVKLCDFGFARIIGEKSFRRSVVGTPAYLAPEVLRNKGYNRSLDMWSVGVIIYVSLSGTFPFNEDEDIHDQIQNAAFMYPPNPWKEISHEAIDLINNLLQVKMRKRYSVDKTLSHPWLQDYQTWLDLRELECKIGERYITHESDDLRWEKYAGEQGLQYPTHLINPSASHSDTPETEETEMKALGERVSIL

[19] = target: DAPK2 (Homo sapiens, UniProt Q9UIK4); assay: ProQinase radiometric kinase panel; details: mean of 2 exp.
Chain of DAPK2 (Q9UIK4 whole entry): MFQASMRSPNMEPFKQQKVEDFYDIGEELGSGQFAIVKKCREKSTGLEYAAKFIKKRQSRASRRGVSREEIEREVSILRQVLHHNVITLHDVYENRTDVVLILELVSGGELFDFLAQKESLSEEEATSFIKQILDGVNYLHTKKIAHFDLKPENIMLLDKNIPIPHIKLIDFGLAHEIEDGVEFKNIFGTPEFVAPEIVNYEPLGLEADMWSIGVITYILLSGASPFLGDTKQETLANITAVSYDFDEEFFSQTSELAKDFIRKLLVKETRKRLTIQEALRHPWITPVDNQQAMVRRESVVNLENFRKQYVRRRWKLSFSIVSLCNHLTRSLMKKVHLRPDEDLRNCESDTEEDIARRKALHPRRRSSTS

[20] = target: MELK (Homo sapiens, UniProt Q14680); assay: ProQinase radiometric kinase panel; details: mean of 2 exp.
[21] = target: BMPR1A (Homo sapiens, UniProt P36894); assay: ProQinase radiometric kinase panel; details: mean of 2 exp.
[22] = target: NEK7 (Homo sapiens, UniProt Q8TDX7); assay: ProQinase radiometric kinase panel; details: mean of 2 exp.
[23] = target: Aurora-C (Homo sapiens, UniProt Q9UQB9); assay: ProQinase radiometric kinase panel; details: mean of 2 exp.
[24] = target: MAPKAPK2 (Homo sapiens, UniProt P49137); assay: ProQinase radiometric kinase panel; details: mean of 2 exp.
[25] = target: EPHA1 (Homo sapiens, UniProt P21709); assay: ProQinase radiometric kinase panel; details: mean of 2 exp.
Chain of EPHA1 (P21709 26-976): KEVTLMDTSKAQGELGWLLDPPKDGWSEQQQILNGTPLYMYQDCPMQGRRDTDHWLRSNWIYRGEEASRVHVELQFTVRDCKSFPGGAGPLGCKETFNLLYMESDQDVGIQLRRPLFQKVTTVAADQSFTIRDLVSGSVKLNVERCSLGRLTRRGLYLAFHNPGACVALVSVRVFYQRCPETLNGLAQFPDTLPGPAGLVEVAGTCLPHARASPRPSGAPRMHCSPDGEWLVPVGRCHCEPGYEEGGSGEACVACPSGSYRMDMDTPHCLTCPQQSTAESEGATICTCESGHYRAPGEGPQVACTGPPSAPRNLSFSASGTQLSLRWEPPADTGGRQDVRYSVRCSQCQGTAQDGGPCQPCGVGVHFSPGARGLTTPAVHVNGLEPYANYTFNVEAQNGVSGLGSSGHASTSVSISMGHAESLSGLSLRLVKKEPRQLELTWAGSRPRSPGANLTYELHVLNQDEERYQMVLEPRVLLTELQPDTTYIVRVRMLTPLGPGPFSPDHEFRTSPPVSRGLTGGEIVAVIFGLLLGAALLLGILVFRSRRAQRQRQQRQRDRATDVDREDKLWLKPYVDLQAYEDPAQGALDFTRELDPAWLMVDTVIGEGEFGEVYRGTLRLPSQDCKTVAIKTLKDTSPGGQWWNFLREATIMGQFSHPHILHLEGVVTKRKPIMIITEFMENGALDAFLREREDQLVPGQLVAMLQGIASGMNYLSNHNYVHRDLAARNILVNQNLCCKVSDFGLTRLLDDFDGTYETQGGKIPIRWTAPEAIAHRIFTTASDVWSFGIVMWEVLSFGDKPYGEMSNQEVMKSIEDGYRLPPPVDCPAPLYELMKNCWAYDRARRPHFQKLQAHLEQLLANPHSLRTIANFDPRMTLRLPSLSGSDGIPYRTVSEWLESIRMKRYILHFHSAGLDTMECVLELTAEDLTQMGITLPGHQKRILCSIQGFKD

[26] = target: TLK1 (Homo sapiens, UniProt Q9UKI8); assay: ProQinase radiometric kinase panel; details: mean of 2 exp.
[27] = target: TAOK3 (Homo sapiens, UniProt Q9H2K8); assay: ProQinase radiometric kinase panel; details: mean of 2 exp.
[28] = target: PLK3 (Homo sapiens, UniProt Q9H4B4); assay: ProQinase radiometric kinase panel; details: mean of 2 exp.
[29] = target: GRK2 (Homo sapiens, UniProt P25098); assay: ProQinase radiometric kinase panel; details: mean of 2 exp.
[30] = target: INSR-R (Homo sapiens, UniProt P14616); assay: ProQinase radiometric kinase panel; details: mean of 2 exp.
[31] = target: TYK2 (Homo sapiens, UniProt P29597); assay: ProQinase radiometric kinase panel; details: mean of 2 exp.
[32] = target: PKC-beta1 (Homo sapiens, UniProt P05771); assay: ProQinase radiometric kinase panel; details: mean of 2 exp.
[33] = target: SAK (Homo sapiens, UniProt O00444); assay: ProQinase radiometric kinase panel; details: mean of 2 exp.
[34] = target: EPHA2 (Homo sapiens, UniProt P29317); assay: ProQinase radiometric kinase panel; details: mean of 2 exp.
Chain of EPHA2 (P29317 24-976): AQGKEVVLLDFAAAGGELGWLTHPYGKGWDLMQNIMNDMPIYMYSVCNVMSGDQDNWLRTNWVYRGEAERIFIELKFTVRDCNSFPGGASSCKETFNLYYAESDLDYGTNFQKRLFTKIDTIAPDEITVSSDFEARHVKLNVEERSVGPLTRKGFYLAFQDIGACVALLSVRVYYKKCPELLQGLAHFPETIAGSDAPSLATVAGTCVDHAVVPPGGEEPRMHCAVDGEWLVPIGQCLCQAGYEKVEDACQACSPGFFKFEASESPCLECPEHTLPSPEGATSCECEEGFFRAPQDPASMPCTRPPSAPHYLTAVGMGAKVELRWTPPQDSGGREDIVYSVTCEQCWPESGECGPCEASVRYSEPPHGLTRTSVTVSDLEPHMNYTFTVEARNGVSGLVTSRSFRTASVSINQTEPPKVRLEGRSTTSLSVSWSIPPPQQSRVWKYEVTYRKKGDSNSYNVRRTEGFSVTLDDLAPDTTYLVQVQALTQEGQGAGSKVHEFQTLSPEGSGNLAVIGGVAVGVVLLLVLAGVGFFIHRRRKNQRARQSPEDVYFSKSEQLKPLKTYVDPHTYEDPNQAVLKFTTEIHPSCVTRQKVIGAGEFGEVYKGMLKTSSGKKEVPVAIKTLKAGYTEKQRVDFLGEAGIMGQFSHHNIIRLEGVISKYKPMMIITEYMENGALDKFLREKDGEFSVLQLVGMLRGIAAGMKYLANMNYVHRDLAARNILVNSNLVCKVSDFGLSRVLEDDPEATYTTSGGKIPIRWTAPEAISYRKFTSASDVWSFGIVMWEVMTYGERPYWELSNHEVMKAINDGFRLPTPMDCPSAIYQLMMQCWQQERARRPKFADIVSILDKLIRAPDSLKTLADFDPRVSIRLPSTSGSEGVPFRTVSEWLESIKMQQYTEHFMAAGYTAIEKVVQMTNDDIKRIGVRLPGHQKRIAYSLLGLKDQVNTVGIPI

[35] = target: CK1-alpha1 (Homo sapiens, UniProt P48729); assay: ProQinase radiometric kinase panel; details: mean of 2 exp.
[36] = target: KIT (Homo sapiens, UniProt P10721); assay: ProQinase radiometric kinase panel; details: mean of 2 exp.
Procedure: Gini coefficients were calculated and the Lorenz curve (Fig 3B) was plotted by applying the Microsoft Excel spreadsheet provided by Graczyk [44].
radiometric protein kinase assays.

[37] = target: FGF-R3 (Homo sapiens, UniProt P22607); assay: ProQinase radiometric kinase panel; details: mean of 2 exp.
[38] = target: PKC-epsilon (Homo sapiens, UniProt Q02156); assay: ProQinase radiometric kinase panel; details: mean of 2 exp.
[39] = target: PRK2 (Homo sapiens, UniProt Q16513); assay: ProQinase radiometric kinase panel; details: mean of 2 exp.

Chain of BLK (P51451 whole entry): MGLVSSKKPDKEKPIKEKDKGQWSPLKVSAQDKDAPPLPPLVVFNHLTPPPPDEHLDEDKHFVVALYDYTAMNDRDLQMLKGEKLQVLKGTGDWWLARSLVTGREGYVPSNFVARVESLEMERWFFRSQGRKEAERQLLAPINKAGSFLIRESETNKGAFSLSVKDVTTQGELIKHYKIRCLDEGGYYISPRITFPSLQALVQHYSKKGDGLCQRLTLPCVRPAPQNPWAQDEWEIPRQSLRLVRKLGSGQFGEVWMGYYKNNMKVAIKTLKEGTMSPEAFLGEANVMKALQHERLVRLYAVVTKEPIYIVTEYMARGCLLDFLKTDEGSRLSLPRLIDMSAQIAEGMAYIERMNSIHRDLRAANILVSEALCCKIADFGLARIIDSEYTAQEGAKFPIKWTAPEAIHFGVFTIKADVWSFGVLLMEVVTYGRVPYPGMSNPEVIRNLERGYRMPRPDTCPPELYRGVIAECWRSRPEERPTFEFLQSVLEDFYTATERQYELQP

residual activity at 1 µM, Mean [1]: 100 % of control | residual activity at 1 µM, Mean [2]: 98 % of control | residual activity at 1 µM, Mean [3]: 99 % of control | residual activity at 1 µM, Mean [4]: 105 % of control | residual activity at 1 µM, Mean [5]: 91 % of control | residual activity at 1 µM, Mean [6]: 94 % of control | residual activity at 1 µM, Mean [7]: 90 % of control | residual activity at 1 µM, Mean [8]: 92 % of control | residual activity at 1 µM, Mean [9]: 99 % of control | residual activity at 1 µM, Mean [10]: 94 % of control | residual activity at 1 µM, Mean [11]: 93 % of control | residual activity at 1 µM, Mean [12]: 83 % of control | residual activity at 1 µM, Mean [14]: 91 % of control | residual activity at 1 µM, Mean [15]: 99 % of control | residual activity at 1 µM, Mean [18]: 100 % of control | residual activity at 1 µM, Mean [19]: 97 % of control | residual activity at 1 µM, Mean [20]: 87 % of control | residual activity at 1 µM, Mean [21]: 89 % of control | residual activity at 1 µM, Mean [22]: 93 % of control | residual activity at 1 µM, Mean [23]: 97 % of control | residual activity at 1 µM, Mean [24]: 85 % of control | residual activity at 1 µM, Mean [25]: 92 % of control | residual activity at 1 µM, Mean [26]: 91 % of control | residual activity at 1 µM, Mean [27]: 103 % of control | residual activity at 1 µM, Mean [28]: 96 % of control | residual activity at 1 µM, Mean [29]: 92 % of control | residual activity at 1 µM, Mean [30]: 97 % of control | residual activity at 1 µM, Mean [31]: 96 % of control | residual activity at 1 µM, Mean [32]: 93 % of control | residual activity at 1 µM, Mean [33]: 112 % of control | residual activity at 1 µM, Mean [34]: 93 % of control | residual activity at 1 µM, Mean [35]: 90 % of control | residual activity at 1 µM, Mean [36]: 82 % of control | residual activity at 1 µM, Mean [37]: 107 % of control | residual activity at 1 µM, Mean [38]: 39 % of control | residual activity at 1 µM, Mean [39]: 88 % of control
SMILES: COc1ccc2c3ccnc(Cl)c3n(CC#N)c2c1 [AnnH75]
residual activity at 1 µM, Mean [13]: 95 % of control | viability at 3 days, 1 µM ([16]; PC12, 1 μM): 94% | viability at 3 days, 3 µM ([16]; PC12, 3 μM): 100% | viability at 3 days, 10 µM ([16]; PC12, 10 μM): 95% | cytotoxicity [17]: minimal cytotoxicity
